Publication PMC12718261, “New Fluorescent Synthetic Retinoids as Potential RAR Agonists with Anticancer, Molecular Docking and ADME Assessments” (Journal of Fluorescence, 2025)
Where “and” joins values, the source holds several entries; their conditions need not be identical. Identical values can stand only once.

Key:
Format in all cases: cell-based
[1] = test system: RAR-γ gene in Caco-2 cells; assay: Gene expression RT-qPCR; settings: Caco-2, IC50 dose, 24 h, relative to 0.1% DMSO, normalized to GAPDH
Description: (§1) The gene expression analysis was performed using real-time quantitative PCR (RT-qPCR), as previously documented. After incubation, cells were harvested, and total RNA was extracted using the Favor-PrepTM Blood/Cultured Cell Total RNA Purification Mini kit (Favorgen Biotech Corp., Ping-Tung, Taiwan). The purified RNA was then reverse transcribed into the first-strand cDNA using the Revert Aid First-Strand cDNA Synthesis Kit (Thermo Scientific, Waltham, MA, USA). All qPCR reactions were carried out using the […] SYBR® Green qPCR Kit (Willowfort, Nottingham, UK). Differential gene expression was performed using the 2ˆ^−ΔΔCT method utilizing GAPDH as a reference gene.

[2] = test system: CRABPII gene in Caco-2 cells; assay: Gene expression RT-qPCR; settings: Caco-2, IC50 dose, 24 h, relative to 0.1% DMSO, normalized to GAPDH
Description: as §1

[3] = test system: CRABPI gene in Caco-2 cells; assay: Gene expression RT-qPCR; settings: Caco-2, IC50 dose, 24 h, relative to 0.1% DMSO, normalized to GAPDH
Description: as §1

[4] = test system: Cyt-C gene in Caco-2 cells; assay: Gene expression RT-qPCR; settings: Caco-2, IC50 dose, 24 h, relative to 0.1% DMSO, normalized to GAPDH
Description: as §1

[5] = test system: Caspase-3 gene in Caco-2 cells; assay: Gene expression RT-qPCR; settings: Caco-2, IC50 dose, 24 h, relative to 0.1% DMSO, normalized to GAPDH
Description: as §1

[6] = test system: RAR-β gene in Caco-2 cells; assay: Gene expression RT-qPCR; settings: Caco-2, IC50 dose, 24 h, relative to 0.1% DMSO, normalized to GAPDH
Description: The gene expression analysis was performed using real-time quantitative PCR (RT-qPCR), as previously documented [38]. After incubation, cells were harvested, and total RNA was extracted using the Favor-PrepTM Blood/Cultured Cell Total RNA Purification Mini kit (Favorgen Biotech Corp., Ping-Tung, Taiwan). The purified RNA was then reverse transcribed into the first-strand cDNA using the Revert Aid First-Strand cDNA Synthesis Kit (Thermo Scientific, Waltham, MA, USA). […] SYBR® Green qPCR Kit (Willowfort, Nottingham, UK). Differential gene expression was performed using the 2ˆ^−ΔΔCT method utilizing GAPDH as a reference gene [39].

[7] = test system: total ATPase in Caco-2 cells; assay: Total ATPase activity, malachite green colorimetric; settings: Caco-2, IC50 dose, 24 h; 0.1% DMSO control normalized to 100%
Description: (§2) The total activity of ATPase and calcium-independent ATPase activity was quantified colorimetrically as described by our previous protocol. […] The inorganic phosphate (Pi) liberated after the hydrolysis of ATP by ATPase enzymes was complexed into a colored product in one step after the addition of a mixed reagent containing malachite green, ammonium molybdate, and polyvinyl alcohol (2:1:1). The intensity of absorbance at 630 nm was measured using the BioTek 800 TS absorbance plate reader (USA) and was directly proportional to the quantity of liberated Pi. In order to eliminate any color due to the non-enzymatic hydrolysis of ATP, control reactions were made using only ATP in the reaction buffer, and the absorbance intensity was then subtracted from the readings of the samples and standards.

Caco-2 cancer cells [8] = assay: Apoptosis assay Annexin V/PI flow cytometry; settings: Caco-2, IC50 dose, 24 h, AV/PI
Description: The standard protocol used in HSBR was performed. […] Cells were rinsed with 1 mL of binding buffer; the cells were again suspended in phosphate-buffered saline (PBS) (Lonza). 100 µL of cell suspension was incubated with 1 µL of FITC-labeled Annexin-V and 5 µL of PI for 15 min at 4 °C in the dark. The suspension was then mixed with 400 µL of ice-cold binding buffer, and each sample's apoptotic cells were analyzed using a Cytoflex flow cytometer (Beckman Coulter, USA), and CytExpert software (version 2.4.0.28) was employed for data analysis.

Caco-2 cancer cells [9] = assay: Cell cycle assay PI staining flow cytometry; settings: Caco-2, IC50 dose, 24 h
Description: The standard protocol used in HSBR was performed. […] Cells were concentrated at 1500 xg and suspended in 50 μg/ml propidium iodide (PI) staining solution and 20 µg/ml RNaseA to identify cells with a sub-G1 DNA content. Cytoflex flow cytometer (Beckman Coulter, USA) was used, and CytExpert software (version 2.4.0.28) was employed for data analysis. The gating strategy used to eliminate doublets depends on plotting the population against a 2D contour plot in four quadrants, referred to as Q1(LL), Q2 (LR), Q3 (UL), and Q4 (UR), that illustrates the spread of the Annexin-FITC-H core cell population against PI PE-H.

[10] = test system: WI-38 normal human fibroblast cells; assay: MTT cytotoxicity assay on normal fibroblasts; settings: WI-38 normal fibroblast cells, 24 h, mean ± SEM
Description: (§3) The antiproliferation and cytotoxicity were assessed using 3-(4,5-dimethylthiazol-2-yl)−2,5-diphenyltetrazolium bromide (MTT, Serva) colorimetric assay. All tested cancer cell lines were seeded at a density of 20,000 cells per well in 96-well plates and allowed to adhere overnight. The attached cells were treated with five serial dilutions (100, 50, 5, 0.5, and 0.1 μM) in triplicate. These concentrations were prepared by diluting the stock solutions with serum-free culture media. The negative control cells were those treated with 0.1% DMSO solvent alone. The treated cells were handled in reduced light and maintained under standard culture growth conditions for 24 h. After the incubation period, MTT powder was prepared as a stock solution (5 mg/mL), and 20 μL of the MTT working reagent (final concentration 0.5 mg/mL) was added to each well. This was followed by incubation with MTT reagent for 4 h in a humidified atmosphere (37 °C, 5% CO2) with subsequent addition of 150 μL of DMSO solubilizing solvent and incubation for 20 min. The absorbance of solubilized violet formazan crystals was measured at 570 nm with a Biotek 800 TS microplate reader. IC50 was calculated as the concentration of retinoid that produced 50% cell growth inhibition. For cytotoxicity assessment, WI-38 normal human fibroblast cells were used for the calculation of SI, which is the ratio of IC50 retinoid (WI-38)/IC50 retinoid (cancer cell line).

Caco-2 = assay: MTT anti-proliferative assay; settings: Homo sapiens; Caco-2, MTT, 24 h, mean ± SEM
Description: as §3

MDA-MB231 = assay: MTT anti-proliferative assay; settings: Homo sapiens, MDA-MB-231, 24 h, mean ± SEM
Description: as §3

HCT-116 = assay: MTT anti-proliferative assay; settings: Homo sapiens; HCT-116, MTT, 24 h, mean ± SEM
Description: as §3

HepG-2 = assay: MTT anti-proliferative assay; settings: Homo sapiens, HepG2; HepG-2, MTT, 24 h, mean ± SEM
Description: as §3

MCF-7 = assay: MTT anti-proliferative assay; settings: Homo sapiens, MCF7; MCF-7, MTT, 24 h, mean ± SEM
Description: as §3

PC-3 = assay: MTT anti-proliferative assay; settings: Homo sapiens; PC-3, MTT, 24 h, mean ± SEM
Description: as §3

[11] = test system: calcium-independent ATPases in Caco-2 cells; assay: Calcium-independent ATPase activity, malachite green colorimetric; settings: Caco-2, IC50 dose, 24 h; 0.1% DMSO control normalized to 100%
Description: as §2

IL-10 in Caco-2 cells = assay: Intracellular IL-10 ELISA; settings: Caco-2, IC50 dose, 24 h, vs DMSO control
Description: For IL-10. Moreover, IL-6 measurements and cell pellets were lysed using RIPA buffer, and the total lysate was collected. The total protein was estimated to use commercially available ELISA kits as per the manufacturer’s instructions. ELISA plates were coated and used for analysis according to the previously used protocol using capture antibody (IL-6, Cat. No.: RAB0307 [57] and IL-10, Cat. No.: RAB1060 [58]), followed by blocking using 5% BSA in PBS-Tween buffer for 1 h. After incubating with samples for 2 h, a secondary […] antibody was added and kept for incubation for 2 h. Streptavidin-HRP reagent was then added to the plates, followed by the addition of TMB solution. Finally, the reaction was stopped using 2 N H2SO4, and the color was measured using the BioTek 800 TS absorbance plate reader (USA) at 450 nm wavelengths, and the protein was quantified.

[12] = test system: different cancer cell lines; assay: MTT anti-proliferative assay, whole panel statements; settings: 24 h, read-out: IC50 across different cancer cell lines
Description: as §3, with “For cytotoxicity assessment, WI-38 normal human fibroblast cells were used for the calculation of SI, which is the ratio of IC50 retinoid (WI-38)/IC50 retinoid (cancer cell line).” left out

[13] = test system: RAR-α, RAR-β, RAR-γ proteins in Caco-2 cells; assay: Western blotting of RAR proteins; settings: Caco-2, IC50 dose, 24 h, normalized to β-actin
Description: Using the previously outlined protocol, the western blot technique was used to determine the expression of RAR-α (Cat. No. E6Z6 K, cell signaling, USA), RAR-β (Cat. No. PP-H4338-00, R&D systems, USA) and RAR- γ (Cat. No. D3 A4, cell signaling, USA) in Caco-2 cells. […] Following incubation, floating adhered cells were separated and lysed. The Caco-2 cell lysate was immediately collected, subjected to sonication, and centrifuged for 15 min at 12,000 × g. The total soluble protein content was measured colorimetrically using the PierceTM 660 nm Assay (Thermo Scientific, Waltham, MA, USA) after the resultant supernatant was separated. The Gel documentation system (Geldoc-it, UVP, England) was applied for data analysis using Totallab analysis software (Ver.1.0.1) (ww.totallab.com).

SMILES	RAR-γ gene expression fold change [1]	Cyt-C gene expression fold change [4]	caspase-3 gene expression fold change [5]	total ATPase activity [7]	% Early apoptotic cells (LR) (Caco-2 cancer cells [8])	% Late apoptotic cells (UL) (Caco-2 cancer cells [8])	% Necrotic cells (UR) (Caco-2 cancer cells [8])	% Viable cells (LL) (Caco-2 cancer cells [8])	% G0-G1 (Caco-2 cancer cells [9])	% G2M (Caco-2 cancer cells [9])	% S (Caco-2 cancer cells [9])	% SubG0-G1 (Caco-2 cancer cells [9])	IC50 [10]	IC50 (Caco-2)	IC50 (MDA-MB231)	IC50 (HCT-116)	IC50 (HepG-2)	IC50 (MCF-7)	IC50 (PC-3)	ca+2-independent ATPase activity [11]	also measured
CC1=C(/C=C/C(C)=C/C=C/C(C)=C/C(=O)O)C(C)(C)CCC1 [ATRA, all-trans-retinoic acid, reference compound]	4.1 ± 0.2 fold	7.7 ± 0.3 fold	1.6 ± 0.1 fold	42.2%	1.20 ± 0.1%	0.03%	98.74% and 98.74 ± 8.7 %	0.02%	17.37 ± 6.1%	3.05 ± 0.7%	5.39 ± 1.4%	74.63 ± 5.8 %	46.9 ± 2.8 µM	11.4 ± 0.3 µM	10.4 ± 0.2 µM	38.8 ± 0.9 µM	16 ± 1.3 µM	4.93 ± 0.4 µM	2.21 ± 0.1 µM	39.4%	CRABPII gene expression fold change [2]: no effect; CRABPI gene expression fold change [3]: 1.2 fold; RAR-β gene expression fold change [6]: 35.3 ± 1.6 fold
COC(=O)c1ccc2cc(-c3ccc4c(c3)CCCN4)ccc2c1 [Compound 3a, Methyl 6-(1,2,3,4-tetrahydroquinolin-6-yl)−2-naphthoate]	4.5 ± 0.2 fold	did not show any overexpression	8.5 ± 0.4 fold	43.9%	47.37 ± 3.9 %	0.30%	51.38 ± 3.6 %	0.95%	23.90 ± 8.4%	2.41 ± 0.3%	4.13 ± 1.2%	70.02% and 70.02 ± 4.7 %	39.2 ± 4.7 µM	9.58 ± 1.1 µM	2.33 ± 0.6 µM	10.2 ± 3.8 µM	6.37 ± 1 µM	13.8 ± 2.4 µM	18.9 ± 4 µM	40.0%	CRABPI gene expression fold change [3]: 2.4 ± 0.1 fold; intracellular IL-10 level change (IL-10 in Caco-2 cells): additional significant reduction
COC(=O)c1ccc2cc(-c3ccc4c(c3)CCCO4)ccc2c1 [Compound 3b, Methyl 6-(chroman-6-yl)−2-naphthoate]	2.4 ± 0.1 fold	did not show any overexpression	did not show any significant increase	41%	60.06 ± 5.4 %	0.49%	37.78% and 37.78 ± 2.7 %	1.68 ± 0.1%	19.65 ± 2.7%	1.74 ± 0.1%	3.31 ± 1.1%	75.62% and 75.62 ± 7.4 %	29.2 ± 2.1 µM	14.4 ± 0.36 µM	2.09 ± 0.1 µM	52.9 ± 4.3 µM	12 ± 2.6 µM	12.2 ± 3.2 µM	4.6 ± 1.7 µM	36.2%	CRABPI gene expression fold change [3]: 9.9 ± 0.4 fold; IC50 [12]: ≤ 50 µM
O=C(O)c1ccc2cc(-c3ccc4c(c3)CCCN4)ccc2c1 [Compound 4a, 6-(1,2,3,4-tetrahydroquinolin-6-yl)−2-naphthoic acid]	–	did not show any overexpression	did not show any significant increase	23.7%	23.44% and 23.44 ± 2.3 %	0.37%	75.13% and 75.13 ± 6.8 %	1.06 ± 0.1%	18.77 ± 4.8%	2.26 ± 0.4%	3.53 ± 1.3%	75.83% and 75.83 ± 6.4 %	43.7 ± 4.2 µM	47.3 ± 6.2 µM	2.42 ± 1.3 µM	133 ± 6.8 µM	53 ± 4.9 µM	64.8 ± 5.4 µM	2.78 ± 0.3 µM	13.9%	RAR protein expression (western blot) [13]: overexpression of all RARs; intracellular IL-10 level change (IL-10 in Caco-2 cells): did not show any significant reduction
